Laboratory results: patent US9676725B2, “S-crystal form of ivabradine hydrochloride, and preparation method and pharmaceutical composition thereof” (Beijing Lunarsun Pharmaceutical Co., LTD., priority 2014, dated 2017)
One block for each compound: values may come before it.

Key:
Format in all cases: physicochemical
[1] = Humidity stability test (moisture and XRD); settings: for Moisture: open, humidity 43.1±0.5%, room temperature (20° C.); for Change of crystal form on water absorption: stored in open condition under humidity 43.1±0.5%, water content up to 3%, hydrochloride
Procedure: The S crystal form of ivabradine hydrochloride as prepared in Example 2 was spread on watch glass to form a thin layer and placed in the upper part of a desiccator, and saturated potassium carbonate solution was placed in the lower part of the desiccator, the humidity in the desiccator was detected (humidity: 43.1±0.5%), conditions were controlled at room temperature (20° C.) and constant humidity, and samples were taken at 1 h, 8 h, 16 h, 24 h, 48 h, 96 h for moisture and XRD tests, and the results are shown in the following table.

[2] = High-temperature stability test at 60° C.; settings: for Content / Properties / Relevant substances: Max single impurity / Relevant substances: Total impurities: 60° C.
Source text: Thus, the product could be stored stably in storehouse at room temperature.

[3] = Storage of crystal form at room temperature (crystal form transformation); settings: 10 days storage at room temperature
Source text: Although many crystal forms have been reported in the documents, their stability and preparation methods are not satisfied. […] Delta crystal form contains acetonitrile which can hardly be removed, and it is difficult to distinguish from acetonitrile-containing crystal form. In addition, ivabradine hydrochloride as a hydrochloride is very easy to absorb moisture, while the change of water content may result in changes of many crystal forms, for example, the change between γd and γ, the change between βd and β.

Moisture ([1]; 1 h): 0.46% | Moisture ([1]; 8 h): 0.55% | Moisture ([1]; 16 h): 0.60% | Moisture ([1]; 24 h): 0.82% | Moisture ([1]; 48 h): 1.4% | Moisture ([1]; 96 h): 3.0% | Change of crystal form on water absorption ([1]; listed as S crystal form): does not change | Change of crystal form on water absorption ([1]; listed as the product): did not change | Content ([2]; the 0th day): 99.50% | Properties ([2]; the 0th day): White | Relevant substances: Max single impurity ([2]; the 0th day): 0.04% | Relevant substances: Total impurities ([2]; the 0th day): 0.19% | Content ([2]; the 5th day): 99.40% | Properties ([2]; the 5th day): White | Relevant substances: Max single impurity ([2]; the 5th day): 0.05% | Relevant substances: Total impurities ([2]; the 5th day): 0.20% | Content ([2]; the 10th day): 99.50% | Properties ([2]; the 10th day): White | Relevant substances: Max single impurity ([2]; the 10th day): 0.05% | Relevant substances: Total impurities ([2]; the 10th day): 0.20% | Change of indicators, e.g. purity, versus the 0th day ([2]; stored at 60° C. for 10 days): did not change significantly | Stability of crystal form ([2]; stored at 60° C. for 10 days): very stable
Structure (SMILES): COc1cc2c(cc1OC)CC(=O)N(CCCN(C)C[C@H]1Cc3cc(OC)c(OC)cc31)CC2.Cl [3-{3-[{[(7S)-3,4-dimethoxybicyclo[4.2.0]octa-1,3,5-trien-7-yl]-methyl}(methyl)-amino]propyl}-7,8-dimethoxy-1,3,4,5-tetrahydro-2H-3-benzazepin-2-one hydrochloride]

Structure (SMILES): COc1cc2c(cc1OC)CC(=O)N(CCCN(C)C[C@H]1Cc3cc(OC)c(OC)cc31)CC2.Cl [δd crystal form, 3-{3-[{[(7S)-3,4-dimethoxybicyclo[4.2.0]octa-1,3,5-trien-7-yl]-methyl}(methyl)-amino]propyl}-7,8-dimethoxy-1,3,4,5-tetrahydro-2H-3-benzazepin-2-one hydrochloride]
Crystal form transformation on storage [3]: most of the δd crystal form will transform into α crystal form
